Data on 6 compounds can be found in patent publication US9867375B2, “Methods of pest control in soybean” (Syngenta Participations AG, priority 2012, dated 2018).

Structures are written as SMILES.

The first assay deals with Euschistus heros. The experiment in a line: Euschistus heros (Neotropical brown stink bug) contact/feeding activity on sprayed soybean plants. The format is in vivo. As to conditions: Euschistus heros, 120 h, 50 ppm; sprayed 2 week old soybean plants, 10 N-2 nymphs; evaluation 5 days after infestation on mortality and growth effects. Here is the method: Euschistus heros (Neotropical brown stink bug) (contact/feeding activity) 2 week old soybean plants are sprayed in a turn table spray chamber with the diluted spray solutions. After drying, 2 soybean seeds are added and plants are infested with 10 N-2 nymphs of the neotropical brown stink bug Euschistus heros in plastic test boxes. Boxes are incubated in a climate chamber at 25° C. and 60% RH. Evaluation is done 5 days after infestation on mortality and growth effects.
As to `CC(C)C(=O)NCc1ccc(C2=NOC(c3cc(Cl)cc(Cl)c3)(C(F)(F)F)C2)cc1Cl` (stereo not drawn) [Compound A2], the pest or weed control (commonly the degree to which the test organism was suppressed or injured, in per cent) at 50 ppm was at least 50%.
For the compound `CC(=O)NCc1ccc(N2CCC(c3cc(Cl)cc(Cl)c3)(C(F)(F)F)C2)cc1C` (stereo not drawn) [Compound A4, N-{4-[3-(3,5-dichlorophenyl)-3-(trifluoromethyl)pyrrolidin1-yl]-2-methyl-benzyl)acetamide], the pest or weed control at 50 ppm is at least 50%.
Same read-out and setting: with `CC(=O)NCc1ccc(C2=NCC(c3cc(Cl)cc(Cl)c3)(C(F)(F)F)C2)cc1Br` (stereo not drawn) [Compound A5, N-{2-bromo-4-[4-(3,5-dichlorophenyl)-4-trifluoromethyl-4,5-dihydro-3H-pyrrol-2yl]-benzyl}acetamide] the figure was at least 50%.

Still in this assay, the particulars now being: low application rates; sprayed soybean plants, N-2 nymphs.
Take `N#Cc1cc(C2=NOC(c3cc(Cl)c(F)c(Cl)c3)(C(F)(F)F)C2)ccc1-n1cncn1` (stereo not drawn) [Compound C3]: the “control at low application rates” value was “excellent control”.
Turning to `N#Cc1cnn(-c2ccc(C3=NOC(c4cc(Cl)c(F)c(Cl)c4)(C(F)(F)F)C3)cc2C#N)c1` (stereo not drawn) [Compound D1], the “control at low application rates” value was “excellent control”.
For the compound `N#Cc1cc(C2=NCC(c3cc(Cl)c(Cl)c(Cl)c3)(C(F)(F)F)C2)ccc1-n1cncn1` (stereo not drawn) [Compound C2, 2-(1,2,4-triazol-1-yl)-5-[3-(3,4,5-trichlorophenyl)-3-(trifluoromethyl)-2,4-dihydropyrrol-5-yl]benzonitrile], the “control at low application rates” value is “excellent control”.
